Results published in article PMC11083148, “Structure–Activity Relationship Studies on Highly Functionalized Pyrazole Hydrazones and Amides as Antiproliferative and Antioxidant Agents” (International Journal of Molecular Sciences, 2024).

Assays:
Assay type in all cases: cell-based
MDA-MB-435 = experiment: NCI screening, Melanoma; conditions: MDA-MB-435, Melanoma; 10 µM; negative values indicate lethality
Method: (§1) In addition, 11a and 17 (representative compounds of the acylhydrazone and amide series) were selected by the National Cancer Institute (NCI, Germantown, MD, USA) and tested at a fixed concentration of 10 µM against a panel of fifty-nine different cancer cell lines, including highly metastatic tumors (Table 2).

M14 = experiment: NCI screening, Melanoma; conditions: 10 µM
Method: as §1

MDA-MB-468 = experiment: NCI screening, Breast Cancer; conditions: MDA-MB-468, Breast Cancer; 10 µM; negative values indicate lethality
Method: as §1

MCF7 = experiment: NCI screening, Breast Cancer; conditions: 10 µM
Method: as §1

HS 578T = experiment: NCI screening, Breast Cancer; conditions: 10 µM
Method: as §1

With `CCOC(=O)c1c(NC(=O)C2CC2)nn(C)c1Nc1ccccc1` [compound 17, Ethyl 3-(cyclopropanecarboxamido)-1-methyl-5-(phenylamino)-1H-pyrazole-4-carboxylate] the “Growth Percentage (%)” value (MDA-MB-435) was 101.76%, the “Growth Percentage (%)” value (M14) was 102.31% and the “Growth Percentage (%)” value (MDA-MB-468) was 102.11%. For the same compound, the “Growth Percentage (%)” value (MCF7) was 92.37% and the “Growth Percentage (%)” value (HS 578T) was 96.86%.
